Assay results published in ChEMBL document CHEMBL1121533, “Synthesis of 8-methoxy-15,16-dinor-6,8,10-trichothecatriene 12,13 alpha-epoxide and 12,13 beta-epoxide as potential antineoplastic agents” (J Med Chem, 1980).
In brackets after ≈: the same amount, converted by molar mass. Activity calls are given as the source filed them. The rule behind the calls is not given here.

What was measured:
P388 [1] = assay: Tested for in vivo antileukemic activity of compound against P388 at 25 mg/kg dose; NA means Not Active; format: functional, organism-based; set-up: dose 25 mg/kg; conditions: Mus musculus
[2] = Tested for in vitro cytotoxic potency of compound in 9KB assay; format: cell-based; conditions: human, KB (9KB) cells; read-out: ED50 (the source's name)
P388 [3] = assay: Tested for in vivo antileukemic activity of compound against P388 at 12.5 mg/kg dose; NA means Not Active; format: functional, organism-based; set-up: dose 12.5 mg/kg; conditions: Mus musculus
P388 [4] = assay: Tested for in vivo antileukemic activity of compound against P388 at 50 mg/kg dose; NA means Not Active; format: functional, organism-based; set-up: dose 50 mg/kg; conditions: Mus musculus

SMILES: COc1ccc2c(c1)[C@@]1(C)CC[C@@H](O2)C12CC2
- ED50 (P388 [1]): inactive
- CC50 [2]: 26 µg/mL (≈ 113 µM)
- ED50 (P388 [3]): inactive
- ED50 (P388 [4]): inactive
